Target: PIK3CD (Human) (UniProt O00329)
Assay: Assessment of PIK3CD Kinase Activity

Chain of PIK3CD (Human) (O00329 whole entry, looked up): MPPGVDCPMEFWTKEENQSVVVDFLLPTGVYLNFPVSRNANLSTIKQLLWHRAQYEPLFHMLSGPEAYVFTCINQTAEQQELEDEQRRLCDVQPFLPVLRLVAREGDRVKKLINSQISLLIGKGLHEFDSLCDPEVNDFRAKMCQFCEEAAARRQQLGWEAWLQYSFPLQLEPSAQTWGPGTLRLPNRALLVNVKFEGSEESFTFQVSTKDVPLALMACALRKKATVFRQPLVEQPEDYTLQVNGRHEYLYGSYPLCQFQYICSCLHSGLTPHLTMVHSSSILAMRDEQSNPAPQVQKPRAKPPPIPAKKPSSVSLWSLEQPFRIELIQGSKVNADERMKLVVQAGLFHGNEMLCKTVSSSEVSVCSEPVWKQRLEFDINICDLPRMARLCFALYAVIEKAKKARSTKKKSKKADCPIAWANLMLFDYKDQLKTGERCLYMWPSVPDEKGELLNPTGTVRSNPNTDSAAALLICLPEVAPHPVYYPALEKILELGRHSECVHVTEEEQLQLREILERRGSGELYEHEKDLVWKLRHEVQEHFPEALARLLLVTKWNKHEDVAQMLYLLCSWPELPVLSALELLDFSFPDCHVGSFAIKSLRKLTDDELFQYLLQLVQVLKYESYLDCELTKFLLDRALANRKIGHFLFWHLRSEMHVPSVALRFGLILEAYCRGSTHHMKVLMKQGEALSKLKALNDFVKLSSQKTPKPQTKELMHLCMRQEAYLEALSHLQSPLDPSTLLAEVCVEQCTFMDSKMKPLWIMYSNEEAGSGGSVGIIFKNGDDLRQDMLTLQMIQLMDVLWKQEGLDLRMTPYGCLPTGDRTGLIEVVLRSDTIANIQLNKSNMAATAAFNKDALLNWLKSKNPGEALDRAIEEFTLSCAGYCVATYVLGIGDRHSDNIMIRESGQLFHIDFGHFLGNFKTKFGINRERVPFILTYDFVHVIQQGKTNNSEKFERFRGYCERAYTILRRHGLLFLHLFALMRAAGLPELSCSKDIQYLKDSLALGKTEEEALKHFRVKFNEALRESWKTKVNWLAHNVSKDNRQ

Structure (SMILES): COc1ccc(S(=O)(=O)N2CCN(c3ncnc4c3nc(-c3cnn(C)c3)n4C)CC2)cc1
- IC50: 500 to 1500 nM

Structure (SMILES): CC1CN(c2ncnc3c2nc(C(=O)NCC2CC2)n3C)CCC1n1c(=O)[nH]c2ccccc21 (centres undefined)
- IC50: 50 to 250 nM

Structure (SMILES): CN(C)c1ccc(-c2nc3c(N4CCC(n5c(=O)[nH]c6ccccc65)CC4)ncnc3n2C)cn1
- IC50: < 50 nM

Structure (SMILES): Cc1cccc(C)c1-n1ncc2c1CCN(c1ncnc3c1nc(C(=O)NCC1CC1)n3C)C2
- IC50: 500 to 1500 nM

Structure (SMILES): Cn1c(C(=O)N2CC[C@@H](F)C2)nc2c(N3CCC(n4c(=O)[nH]c5ccccc54)CC3)ncnc21
- IC50: 50 to 250 nM

Structure (SMILES): Cn1c(C(=O)NCC2CC2)nc2c(N3CCC(n4c(=O)[nH]c5ccccc54)CC3)ncnc21
- IC50: 50 to 250 nM

Structure (SMILES): Cc1cccc(-n2ncc3c2CCN(c2ncnc4c2nc(C(=O)NCC2CC2)n4C)C3)c1
- IC50: 500 to 1500 nM

Structure (SMILES): CN1CCN(c2cccc3c2[nH]c(=O)n3C2CCN(c3ncnc4c3nc(C(=O)NCC3CC3)n4C)CC2)CC1
- IC50: 50 to 250 nM

Structure (SMILES): CN(C)C1CN(C(=O)c2nc3c(N4CCC5(CC4)C(=O)NCN5c4ccccc4)ncnc3n2C)C1
- IC50: 500 to 1500 nM

Structure (SMILES): Cn1c(-c2cn[nH]c2)nc2c(N3CCC(n4c(=O)[nH]c5ccccc54)CC3)ncnc21
- IC50: < 50 nM

Structure (SMILES): Cc1c(-c2nc3c(N4CCC(n5c(=O)[nH]c6c(F)cccc65)CC4)ncnc3n2C)cnn1C
- IC50: < 50 nM

Structure (SMILES): Cn1c(C(=O)NCC2CC2)nc2c(N3CCC(C4C(=O)Nc5ccccc54)CC3)ncnc21 (centres undefined)
- IC50: 250 to 500 nM

Structure (SMILES): CCCn1cc(-c2nc3c(N4CCC(n5c(=O)[nH]c6ccccc65)CC4)ncnc3n2CC)cn1
- IC50: < 50 nM

Structure (SMILES): CCn1c(-c2cn[nH]c2)nc2c(N3CCC(n4c(=O)[nH]c5ccccc54)CC3)ncnc21
- IC50: < 50 nM

Structure (SMILES): Cn1c(C(=O)NCC2CC2)nc2c(N3CCc4c(cnn4-c4ccccc4)C3)ncnc21
- IC50: 250 to 500 nM

Structure (SMILES): Cn1c(C(=O)NCC2CC2)nc2c(N3CCC(n4c(N)nc5ccccc54)CC3)ncnc21
- IC50: 50 to 250 nM

Structure (SMILES): COc1cccc2c1[nH]c(=O)n2C1CCN(c2ncnc3c2nc(C(=O)NCC2CC2)n3C)CC1
- IC50: 50 to 250 nM

Structure (SMILES): Cc1ccc(-n2ncc3c2CCN(c2ncnc4c2nc(C(=O)NCC2CC2)n4C)C3)c(C)c1
- IC50: 500 to 1500 nM

Structure (SMILES): Cc1ccccc1-n1ncc2c1CCN(c1ncnc3c1nc(C(=O)NCC1CC1)n3C)C2
- IC50: 500 to 1500 nM
